According to patent US6475502B1, “Kits containing cyanoacrylate compositions comprising an antimicrobial agent” (Flowers Park Ltd., priority 1997, dated 2002):
Where a name gives a salt, the structure may show the parent alone. Read-outs that look alike come from different tables or passages of the source.

What was measured:
[1] = Premature polymerization (gel formation) of the cyanoacrylate composition after mixing with the antimicrobial agent; format: physicochemical; conditions: for Period over which the composition polymerized after mixing: 5 weight percent agent based on total weight of composition; for Compatibility with the cyanoacrylate composition: overall conclusion of Example 1, for tetracycline hydrochloride and hexachlorophene when mixed immediately prior to use
[2] = Solubility or suspendability of the antimicrobial agent in the n-butyl cyanoacrylate composition

In the case of `CN(C)[C@@H]1C(O)=C(C(N)=O)C(=O)[C@@]2(O)C(O)=C3C(=O)c4c(O)cccc4[C@@](C)(O)[C@H]3C[C@@H]12` [tetracycline hydrochloride], the “Period over which the composition polymerized after mixing” value [1] is reported as about 48 h and the “Compatibility with the cyanoacrylate composition” value [1] is reported as “compatible”.

For `II` [elemental iodine (I2), elemental iodine], the Soluble [2] was “partially”.

With `Oc1c(Cl)cc(Cl)c(Cl)c1Cc1c(O)c(Cl)cc(Cl)c1Cl` [hexachlorophene] the “Period over which the composition polymerized after mixing” value [1] was about 48 h and the “Compatibility with the cyanoacrylate composition” value [1] was “compatible”.

With `O=C([O-])c1ccccc1-c1c2cc(Br)c(=O)cc-2oc2[c]([Hg+])c([O-])c(Br)cc12.[Na+].[Na+].[OH-]` [Merbromin, merbromin] the Soluble ([2]; in monomeric n-butyl cyanoacrylate with 100 ppm sulfur dioxide and 20 weight percent dioctyl phthalate, agent conc. per column Conc. (~20% iodine, 10% PVP-I2, 5% others)) was “no, gelled^1”.

For `CC[C@H]1OC(=O)[C@H](C)[C@@H](O[C@H]2C[C@@](C)(OC)[C@@H](O)[C@H](C)O2)[C@H](C)[C@@H](O[C@@H]2O[C@H](C)C[C@H](N(C)C)[C@H]2O)[C@](C)(O)C[C@@H](C)C(=O)[C@H](C)[C@@H](O)[C@]1(C)O` [Erythromycin, erythromycin], the Soluble [2] was “no, gelled^1”.
